Among the data in paper PMC12573178, “Substrate-Guided Development of HDAC11-Selective Inhibitors Featuring α‑Amino Amide Zinc-Binding Groups” (ACS Omega, 2025) are IC50 and inhibition values, retold here.

For the experiment, the target named is T1, SIRT2 (Homo sapiens, UniProt Q8IXJ6).
T1 sequence (Q8IXJ6 1-389): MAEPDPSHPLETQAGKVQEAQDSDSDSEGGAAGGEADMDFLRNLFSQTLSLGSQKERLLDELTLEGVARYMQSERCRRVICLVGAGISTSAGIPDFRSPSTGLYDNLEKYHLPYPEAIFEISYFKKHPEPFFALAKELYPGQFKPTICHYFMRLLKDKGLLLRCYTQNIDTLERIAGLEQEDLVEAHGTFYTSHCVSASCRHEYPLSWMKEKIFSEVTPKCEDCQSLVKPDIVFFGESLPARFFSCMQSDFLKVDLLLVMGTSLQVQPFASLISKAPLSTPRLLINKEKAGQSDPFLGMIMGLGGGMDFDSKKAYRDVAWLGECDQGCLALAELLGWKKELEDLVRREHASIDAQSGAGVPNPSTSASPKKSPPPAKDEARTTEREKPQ
The experiment is described as follows: SIRT2 inhibition assays (continuous / discontinuous demyristoylation). It is filed as biochemical. As for the experimental part:
Inhibition of the enzymatic activity of HDACs was performed continuously for HDAC8, HDAC11, and SIRT2 and discontinuously for SIRT2, 3, and 6 using adequate substrates as described previously. , Experimental details are given in the Supporting Information.
A. HDAC and SIRT deacylase activity assays
Continuous in vitro HDAC inhibition assays
The inhibitors were tested using 384-well plates (GreinerONe). After 5 min of incubation of the inhibitors together with the respective enzymes (HDAC8 = 2 nM, HDAC11 = 20 nM, SIRT2 = 1 nM), the reactions were always started by the addition of substrate for the Zn2+-dependent HDAC and by the addition of NAD+ for SIRT2. […]
The fluorescence increase was followed for 1 h with two reads per min using a PerkinElmer Envision 2104 multilabel plate reader. […] The measured values were normalized accordingly. […] The data were fitted using the GraphPad Prism8 software and kinetic values calculated through non-linear regression analysis. […]
Reactions were stopped after 20 min by adding a constant volume of reaction mixture to stop solution (5 % acetonitrile (ACN) (v/v) and 1 % trifluoroacetic acid (TFA) (v/v) in dd. H 2O). The samples were analysed using HPLC-UV/VIS at λ Abs = 220 nm, λ Ex = 320 nm und λ Em = 420 nm. […]
100 nM, SIRT3: 200 nM, SIRT6: 500 nM). […] The samples were analysed using HPLC-UV/VIS at λ Abs = 360 nm. […]

A value given as a limit tells only on which side of the number the result lay.

Turning to `CCCCCCCCCCCCSC[C@@H](N)C(=O)NCCCC[C@@H]1NC(=O)[C@H](CCC(N)=O)NC1=O` [Compound 31], the IC50 (commonly the point on the concentration scale where inhibition reaches its midpoint) is greater than 20 µM. Further, for the setting “50 μM 31”, testing at 50 µM gave an inhibition of 41.5%.
